For the test, the target named is T1, P-selectin (Homo sapiens) (UniProt P16109).
T1 sequence (whole entry): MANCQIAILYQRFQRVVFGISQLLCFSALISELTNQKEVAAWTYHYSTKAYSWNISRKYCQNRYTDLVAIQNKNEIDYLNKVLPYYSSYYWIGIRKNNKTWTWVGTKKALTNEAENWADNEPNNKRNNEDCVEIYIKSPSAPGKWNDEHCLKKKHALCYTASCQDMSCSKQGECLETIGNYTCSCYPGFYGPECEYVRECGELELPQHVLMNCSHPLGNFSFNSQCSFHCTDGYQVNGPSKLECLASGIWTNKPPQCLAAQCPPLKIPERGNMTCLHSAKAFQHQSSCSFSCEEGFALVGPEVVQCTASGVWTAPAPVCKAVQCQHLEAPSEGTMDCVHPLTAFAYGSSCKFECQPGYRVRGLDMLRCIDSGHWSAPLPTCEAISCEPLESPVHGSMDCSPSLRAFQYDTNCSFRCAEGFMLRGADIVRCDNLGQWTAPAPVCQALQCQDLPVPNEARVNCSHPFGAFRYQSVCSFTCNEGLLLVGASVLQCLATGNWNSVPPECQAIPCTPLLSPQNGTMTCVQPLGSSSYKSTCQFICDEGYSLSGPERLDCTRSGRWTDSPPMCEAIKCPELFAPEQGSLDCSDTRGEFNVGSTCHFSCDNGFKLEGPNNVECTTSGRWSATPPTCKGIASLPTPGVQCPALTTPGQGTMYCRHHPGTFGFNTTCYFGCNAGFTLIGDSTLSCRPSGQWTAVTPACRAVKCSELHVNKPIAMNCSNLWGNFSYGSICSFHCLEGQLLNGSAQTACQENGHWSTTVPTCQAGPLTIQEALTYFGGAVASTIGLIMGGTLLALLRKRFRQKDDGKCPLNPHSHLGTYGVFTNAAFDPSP
Nature of the test: Inhibition of human HL60 cell adhesion to P-selectin coated on microtiter plates assessed as reduction in adhesion at 200 uM after 3 days by calcein-AM assay relative to untreated cells. In kind it is cell-based. Also noted: scale not given: the % may be the effect or the level left. As to conditions: HL-60.

The source made the active and inactive calls. No cut-off for these calls is given here.

On to `CCC(=O)N[C@H]1[C@H]([C@@H](OC(C)=O)[C@@H](COC(C)=O)OC(C)=O)O[C@@](OC(C)=O)(C(=O)OC)C[C@@H]1OC(C)=O`, for which the result was Active.
The result for `COC(=O)[C@@]1(OC(C)=O)C[C@H](OC(C)=O)[C@@H](NC(=O)CC(C)C)[C@H]([C@@H](OC(C)=O)[C@@H](COC(C)=O)OC(C)=O)O1` reads 10%.
As to `COC(=O)[C@@]1(OC(C)=O)C[C@H](OC(C)=O)[C@@H](NC(=O)CCC(F)(F)F)[C@H]([C@@H](OC(C)=O)[C@@H](COC(C)=O)OC(C)=O)O1`, the Activity is 77%.
Regarding `COC(=O)[C@@]1(OC(C)=O)C[C@H](OC(C)=O)[C@@H](NC(=O)CC(F)(F)F)[C@H]([C@@H](OC(C)=O)[C@@H](COC(C)=O)OC(C)=O)O1`, the Activity is 62%.
With `COC(=O)[C@@]1(OC(C)=O)C[C@H](OC(C)=O)[C@@H](NC(=O)CCC(C)C)[C@H]([C@@H](OC(C)=O)[C@@H](COC(C)=O)OC(C)=O)O1`, the Activity is 44%.

The values above are taken from ChEMBL document CHEMBL1157814, “Modulation of cellular adhesion by glycoengineering” (J Med Chem, 2010).
